Reference: US20080234286A1 (CHEMAGIS Ltd., priority 2007, published 2008)
Counter-ions that a name gives are not always drawn.

How the values were obtained:
Format in all cases: physicochemical
[1] = Water content by Karl Fischer titration
Procedure: The water content measurements were carried out using a Karl Fischer Titrator (Mettler Toledo Model DL-53), according to standard procedures.

[2] = Bulk and tapped density (Vankel tapped density tester)
Procedure: Bulk and tapped densities were measured using Varian's Vankel tapped density tester model 50-2300.

[3] = Physical nature / hygroscopicity of the obtained solid (observation); details: as obtained after drying
[4] = Retention of amorphous form after compressing at high pressure, checked by X-ray diffractometer; details: about 7.5 tons/cm^2 for 15 minutes
Procedure: X-ray diffraction data were acquired using a PHILIPS X-ray diffractometer model PW1050-70. System description: Kα1=1.54178 Å, voltage 40 kV, current 28 mA, diversion slit=1°, receiving slit=0.2 mm, scattering slit=1° with a Graphite monochromator. Measurements of 2θ values typically are accurate to within ±0.2 degrees. Experiment parameters: pattern measured between 2θ=3° and 2θ=30° with 0.05° increments; count time was 0.5 second per increment. […]
The four samples, marked as 1-4, were checked by X-ray diffractometer after compressing and the results are detailed in Table 5.

[5] = Storage stability of packed compressed tablets (amorphous form, purity by HPLC)
Description: The term “remains stable”, as defined herein, refers to lack of formation of impurities, while being stored as described herein (see Example 11).
The compressed tablets were packed in a packing comprising internal sealed polyethylene bag, containing the tablets, which was inserted into a middle opaque (e.g., black) polyethylene bag, which was then sealed, wherein the packaging was sealed effectively to prevent penetration of humidity and/or oxygen. The polyethylene bag was packed and sealed in a laminated aluminum bag containing silica.
The samples were packed in the above-mentioned packaging and stored at room temperate and at 40° C. Samples were withdrawn periodically after 5, 8, 13 and 30 days and the purity of the withdrawn material was checked by HPLC.

| SMILES | % water in the product [1] [%] | other results |
| --- | --- | --- |
| Cc1ccc(NC(=O)c2ccc(CN3CCN(C)CC3)cc2)cc1Nc1nccc(-c2cccnc2)n1 [Example 4, imatinib mesylate] | 3.7 |  |
| Cc1ccc(NC(=O)c2ccc(CN3CCN(C)CC3)cc2)cc1Nc1nccc(-c2cccnc2)n1 [Example 2, imatinib mesylate] |  | bulk density [2]: 0.29 g/mL; tapped density [2]: 0.39 g/mL |
| Cc1ccc(NC(=O)c2ccc(CN3CCN(C)CC3)cc2)cc1Nc1nccc(-c2cccnc2)n1 [Reference Example 1, imatinib mesylate, reference compound] | 2.2 | physical nature of the obtained solid (hygroscopicity, flow) [3]: glassy deliquescent material |
| Cc1ccc(NC(=O)c2ccc(CN3CCN(C)CC3)cc2)cc1Nc1nccc(-c2cccnc2)n1 [Example 7, imatinib mesylate] | 4.3 |  |
| Cc1ccc(NC(=O)c2ccc(CN3CCN(C)CC3)cc2)cc1Nc1nccc(-c2cccnc2)n1 [Example 8, imatinib mesylate] | 3.8 |  |
| Cc1ccc(NC(=O)c2ccc(CN3CCN(C)CC3)cc2)cc1Nc1nccc(-c2cccnc2)n1 [Example 3, imatinib mesylate] | 4.1 |  |
| Cc1ccc(NC(=O)c2ccc(CN3CCN(C)CC3)cc2)cc1Nc1nccc(-c2cccnc2)n1 [Example 1, imatinib mesylate] | 4.1 | physical nature of the obtained solid (hygroscopicity, flow) [3]: non-hygroscopic and free-flowing |
| Cc1ccc(NC(=O)c2ccc(CN3CCN(C)CC3)cc2)cc1Nc1nccc(-c2cccnc2)n1 [Example 10, imatinib mesylate] | 3.2 |  |
| Cc1ccc(NC(=O)c2ccc(CN3CCN(C)CC3)cc2)cc1Nc1nccc(-c2cccnc2)n1 [Example 9, imatinib mesylate] | 4.9 |  |
| Cc1ccc(NC(=O)c2ccc(CN3CCN(C)CC3)cc2)cc1Nc1nccc(-c2cccnc2)n1 [Example 6, imatinib mesylate] | 3.8 |  |
| Cc1ccc(NC(=O)c2ccc(CN3CCN(C)CC3)cc2)cc1Nc1nccc(-c2cccnc2)n1 [Reference Example 2, imatinib mesylate, reference compound] | 1.7 | physical nature of the obtained solid (hygroscopicity, flow) [3]: very electrostatic and tended to agglomerate |
| Cc1ccc(NC(=O)c2ccc(CN3CCN(C)CC3)cc2)cc1Nc1nccc(-c2cccnc2)n1 [amorphous imatinib mesylate, imatinib mesylate] |  | solid form after being compressed [4]: remains in amorphous form; stability and amorphous form on storage ([5]; stored at 25° C. for at least a month): remains stable and maintains its amorphous form; stability and amorphous form on storage ([5]; stored at 40° C. for at least a month): remains stable and maintains its amorphous form |
| Cc1ccc(NC(=O)c2ccc(CN3CCN(C)CC3)cc2)cc1Nc1nccc(-c2cccnc2)n1 [Example 5, imatinib mesylate] | 4.8 |  |
